Test results reported in ChEMBL document CHEMBL4483862, “Open-source discovery of chemical leads for next-generation chemoprotective antimalarials” (2018).
pIC50: −log10 of the molar value.

System: Plasmodium berghei
Experiment: Luciferase/luciferin-expressing antifolate-resistant parasites were used to infect a culture of HepG2 cells that were pre-incubated with compounds. Infected hepatocytes emit light due to the luciferase reaction. Assay results are presented as the percent inhibition of light emission compared to control. […]
Format: functional
Conditions: sporozoite; for IC90: read-out: LUCIFERASE INFECTION ASSAY - IC90
[1] = read-out: LUCIFERASE INFECTION ASSAY - IC50

Compound | IC90 [µM] | pIC50 [1] | further results
Cc1ccc2c(Cl)cc(Cl)c(OCC(=O)c3c[nH]c(C(=O)N4CCCC4)c3)c2n1 | 8.53 | – | pIC50 (HEPG2TOX_HILL_SLOPE 1.13, HEPG2TOX_R_SQUARED 0.949, PBLUC_HILL_SLOPE 1.15, PBLUC_R_SQUARED 0.754, read-out: LUCIFERASE INFECTION ASSAY - IC50): 5.90
COc1cccc(/C=N/NC(=S)NC2CC3CCC2C3)c1O (centres undefined) | > 10.3 | < 4.99 | –
Clc1ccc(-c2csc3ncnc(NCc4ccco4)c23)cc1 | > 10 | < 5.00 | –
Cc1ccc(NC(=O)/C(=C/c2cccc(F)c2)n2nnnc2C)cc1S(=O)(=O)N1CCCCCC1 | 4.24 | – | pIC50 (HEPG2TOX_HILL_SLOPE 12.2, HEPG2TOX_R_SQUARED 0.863, PBLUC_HILL_SLOPE 25.1, PBLUC_R_SQUARED 0.833, read-out: LUCIFERASE INFECTION ASSAY - IC50): 5.41
COc1ccccc1C(=O)NCc1cn(Cc2ccccc2)nc1-c1ccccc1 | > 10 | – | pIC50 (PBLUC_HILL_SLOPE 11.8, PBLUC_R_SQUARED 0.553, read-out: LUCIFERASE INFECTION ASSAY - IC50): 5.04
Cn1c(Sc2sccc2[N+](=O)[O-])nnc1C(F)(F)F | > 10.6 | < 4.97 | –
CCCC1(CCC)NC(=O)N(CC(=O)/N=c2\sc3ccccc3n2C)C1=O | > 10 | – | pIC50 (HEPG2TOX_HILL_SLOPE 1.17, HEPG2TOX_R_SQUARED 0.854, PBLUC_HILL_SLOPE 1.78, PBLUC_R_SQUARED 0.281, read-out: LUCIFERASE INFECTION ASSAY - IC50): 5.34
CN(C)c1nn(C(=O)Nc2cccc(C(F)(F)F)c2)cc1-c1ccccc1 | 8.43 | – | pIC50 (PBLUC_HILL_SLOPE 19.3, PBLUC_R_SQUARED 0.463, read-out: LUCIFERASE INFECTION ASSAY - IC50): 5.12
CN(Cc1nc2ccccc2s1)Cn1cnc2c(=O)n(C)c(=O)n(C)c21 | > 10 | – | pIC50 (PBLUC_HILL_SLOPE 0.862, PBLUC_R_SQUARED 0.121, read-out: LUCIFERASE INFECTION ASSAY - IC50): 5.01
CCCCn1nc(C)c(C(=O)Nc2nc3ccccc3[nH]2)c1Cl | > 10 | – | pIC50 (PBLUC_HILL_SLOPE 0.43, PBLUC_R_SQUARED 0.84, read-out: LUCIFERASE INFECTION ASSAY - IC50): 7.04
CC(NC(=O)c1nc(-c2ccccc2)n(-c2ccccc2)n1)C12CC3CC(CC(C3)C1)C2 (centres undefined) | 5.28 | – | pIC50 (HEPG2TOX_HILL_SLOPE 3.46, HEPG2TOX_R_SQUARED 0.871, PBLUC_HILL_SLOPE 90.3, PBLUC_R_SQUARED 0.516, read-out: LUCIFERASE INFECTION ASSAY - IC50): 5.29
CS(=O)(=O)Nc1cccc(-c2cn3c(-c4cccc(CO)c4)cnc3cn2)c1 | > 8.37 | < 5.08 | –
CC1N(C)c2ccc(/C=C/c3sc4ccccc4[n+]3C)cc2C1(C)C (centres undefined) | 4.5 | – | pIC50 (HEPG2TOX_HILL_SLOPE 3.18, HEPG2TOX_R_SQUARED 0.945, PBLUC_HILL_SLOPE 1.61, PBLUC_R_SQUARED 0.672, read-out: LUCIFERASE INFECTION ASSAY - IC50): 5.94
CN(CC(=O)Nc1ccc(Cl)c(C(F)(F)F)c1)CC(=O)Nc1ccc(Cl)cn1 | > 10 | < 5.00 | –
Oc1ccccc1/C=N/Nc1cccc(C(F)(F)F)c1 | > 11.8 | – | pIC50 (HEPG2TOX_HILL_SLOPE 6.57, HEPG2TOX_R_SQUARED 0.439, PBLUC_HILL_SLOPE 2.9, PBLUC_R_SQUARED 0.288, read-out: LUCIFERASE INFECTION ASSAY - IC50): < 4.93
COC(=O)C1=C2N(C)c3ccccc3N2C(Nc2ccc(C)cc2)=NC1C(F)(F)F.Cc1ccc(C)cc1 (centres undefined) | > 10 | – | pIC50 (FFLUC_HILL_SLOPE 2.2, FFLUC_R_SQUARED 0.697, HEPG2TOX_HILL_SLOPE 5.36, HEPG2TOX_R_SQUARED 0.5, PBLUC_HILL_SLOPE 4.61, PBLUC_R_SQUARED 0.0573, read-out: LUCIFERASE INFECTION ASSAY - IC50): 5.13
c1nc(Nc2ccc(C34CC5CC(CC(C5)C3)C4)cc2)c2ccsc2n1 | 0.884 | – | pIC50 (PBLUC_HILL_SLOPE 24.2, PBLUC_R_SQUARED 0.39, read-out: LUCIFERASE INFECTION ASSAY - IC50): 6.09
O=[N+]([O-])c1ccc(NC2C=CS(=O)(=O)C2)c(Cl)c1 (centres undefined) | > 10 | – | pIC50 (HEPG2TOX_HILL_SLOPE 13.7, HEPG2TOX_R_SQUARED 0.786, read-out: LUCIFERASE INFECTION ASSAY - IC50): < 5.00
Cc1cccc(Cn2nc(C(C)(C)C)cc2-c2nnc(SCc3ccccc3)n2C2CCCCC2)c1 | > 6.6 | < 5.18 | –
COc1ccc(-c2nc(NC(=O)c3ccc(-n4cccn4)nc3)sc2C)cc1 | > 10 | < 5.00 | –
Cn1cc(-c2cn3c(-c4cccc(O)c4)cnc3cn2)cn1 | > 11.3 | – | pIC50 (HEPG2TOX_HILL_SLOPE 8.37, HEPG2TOX_R_SQUARED 0.807, PBLUC_HILL_SLOPE 3.66, PBLUC_R_SQUARED 0.561, read-out: LUCIFERASE INFECTION ASSAY - IC50): 5.16

Compound | IC90 [µM] | pIC50 [1] | further results
CCN1C(=O)N(CCc2ccccc2)C2(CCN(Cc3ccc(C)cc3)CC2)C1=O | > 8.14 | – | pIC50 (PBLUC_HILL_SLOPE 4.45, PBLUC_R_SQUARED 0.239, read-out: LUCIFERASE INFECTION ASSAY - IC50): 5.22
Nc1ncc(-c2ccc(C(=O)NC3CC3)cc2)cc1-c1ccc(F)c(Cl)c1 | 8.39 | – | pIC50 (PBLUC_HILL_SLOPE 15.4, PBLUC_R_SQUARED 0.346, read-out: LUCIFERASE INFECTION ASSAY - IC50): 5.14
Cc1cc(Br)ccc1NC(=O)CNC(=O)CCC(=O)N1CCC(c2ccccc2)=N1 | > 10 | < 5.00 | –
CC(=O)c1cccc(-c2cnc3cnc(-c4ccccc4Cl)cn23)c1 | > 9.49 | – | pIC50 (PBLUC_HILL_SLOPE 3.8, PBLUC_R_SQUARED 0.614, read-out: LUCIFERASE INFECTION ASSAY - IC50): 5.17
Cc1c(C(=O)Nc2nonc2-c2ccc(F)cc2)oc2ccc(F)cc12 | 8.3 | – | pIC50 (HEPG2TOX_HILL_SLOPE 16.1, HEPG2TOX_R_SQUARED 0.611, PBLUC_HILL_SLOPE 12, PBLUC_R_SQUARED 0.0677, read-out: LUCIFERASE INFECTION ASSAY - IC50): 5.16
Cc1nn2c(nc(NCc3ccc(Cn4ccnc4)cc3)c3ccccc32)c1Cl | > 10 | – | pIC50 (FFLUC_HILL_SLOPE 16.1, FFLUC_R_SQUARED 0.458, read-out: LUCIFERASE INFECTION ASSAY - IC50): < 5.00
Cc1cc(C)c2nc(N(Cc3ccccc3)C(=O)c3nc(S(C)(=O)=O)ncc3Cl)sc2c1 | > 10 | – | pIC50 (FFLUC_HILL_SLOPE 9.88, FFLUC_R_SQUARED 0.449, HEPG2TOX_HILL_SLOPE 6.61, HEPG2TOX_R_SQUARED 0.275, PBLUC_HILL_SLOPE 4.15, PBLUC_R_SQUARED 0.619, read-out: LUCIFERASE INFECTION ASSAY - IC50): 5.20
CN(C)c1ccc(CNC(=O)C2CCN(C(=O)NCc3ccco3)CC2)cc1 | > 10 | < 5.00 | –
Cn1c(CNC(=O)c2cc(-c3ccccc3)c(N3CCOCC3)s2)nc2ccccc21 | > 10 | < 5.00 | –
O=C(NCCSCc1c(F)cccc1Cl)c1cccs1 | > 10 | – | pIC50 (PBLUC_HILL_SLOPE 2.01, PBLUC_R_SQUARED 0.48, read-out: LUCIFERASE INFECTION ASSAY - IC50): 5.40
CC(Sc1nnc(/C=C/c2ccc(F)cc2)[nH]1)C(=O)NC(C)(C)C (centres undefined) | 5.34 | 5.68 | –
CCCNC(=O)c1c(NC(=O)c2ccc(C)cc2)nc2ccccn12 | 9.6 | – | pIC50 (PBLUC_HILL_SLOPE 5.82, PBLUC_R_SQUARED 0.26, read-out: LUCIFERASE INFECTION ASSAY - IC50): 5.18
O=C(Nc1ccc(N2CCCCCC2)cc1)c1ccc[nH]1 | 2.88 | – | pIC50 (PBLUC_HILL_SLOPE 1.36, PBLUC_R_SQUARED 0.768, read-out: LUCIFERASE INFECTION ASSAY - IC50): 6.24
CN(C)c1cccc(Nc2nccn3c(-c4ccc5c(c4)OCO5)cnc23)c1 | 2.84 | 6.44 | –
COc1ccc(Sc2ccc(NC(=O)c3ccc(F)cc3)cc2C#N)cc1 | > 8.72 | < 5.06 | –
Cc1cn2c(CNCCc3ccc(N4CCCCC4)cc3)c(C)nc2s1 | 0.606 | – | pIC50 (HEPG2TOX_HILL_SLOPE 1.99, HEPG2TOX_R_SQUARED 0.618, PBLUC_HILL_SLOPE 85.2, PBLUC_R_SQUARED 0.531, read-out: LUCIFERASE INFECTION ASSAY - IC50): 6.23
Cc1cccc(C)c1NC(=O)Nc1nc(C(N)Cc2ccc(C(F)(F)F)cc2)cs1 (centres undefined) | > 7.6 | – | pIC50 (PBLUC_HILL_SLOPE 11.8, PBLUC_R_SQUARED 0.0609, read-out: LUCIFERASE INFECTION ASSAY - IC50): 5.16
CN(C)S(=O)(=O)c1ccc(NC(=O)COc2ccc(Oc3ccc(C(F)(F)F)cn3)cc2)cc1 | > 10 | < 5.00 | –
COc1cc(-c2cnc3ccc(Cc4ccccc4)nn23)cc(OC)c1OC | > 10 | – | pIC50 (HEPG2TOX_HILL_SLOPE 1.4, HEPG2TOX_R_SQUARED 0.659, PBLUC_HILL_SLOPE 16.5, PBLUC_R_SQUARED 0.342, read-out: LUCIFERASE INFECTION ASSAY - IC50): 5.03
Cc1cc(C(=O)N/N=C/c2c(-c3ccccc3)nc3ccccn23)c(C)o1 | > 10 | – | pIC50 (PBLUC_HILL_SLOPE 2.6, PBLUC_R_SQUARED 0.44, read-out: LUCIFERASE INFECTION ASSAY - IC50): 5.19
c1cncc(-c2ccc3ncc(-c4cccnc4)n3n2)c1 | 2.92 | – | pIC50 (HEPG2TOX_HILL_SLOPE 1.17, HEPG2TOX_R_SQUARED 0.949, PBLUC_HILL_SLOPE 1.66, PBLUC_R_SQUARED 0.633, read-out: LUCIFERASE INFECTION ASSAY - IC50): 6.11
